Activity calls are given as the source filed them. No cut-off for these calls is given here.
Columns and labels:
[1] = target: Voltage-gated inwardly rectifying potassium channel KCNH2 (Homo sapiens, UniProt Q12809); test: Inhibition of recombinant human ERG expressed in CHO cells by patch clamp assay; format: cell-based
[2] = Stability in human liver microsomes at 5 uM incubated for 60 mins by UPLC-MS/MS analysis; format: ADME, Microsome; settings: 1 h
Mus musculus [3] = test: Effect on FADD in CD-1 mouse at 20 mg/kg, ip measured after 1 hr by Westernblot analysis; format: functional
[4] = Effective permeability of compound by PAMPA-BBB assay; format: ADME; settings: read-out: Peff
[5] = target: T1, Cholecystokinin receptor type A (Homo sapiens, UniProt P32238); test: Displacement of [125I]CCK-8s from human CCKA incubated for 60 mins by scintillation counting method
T1 sequence (P32238 whole entry): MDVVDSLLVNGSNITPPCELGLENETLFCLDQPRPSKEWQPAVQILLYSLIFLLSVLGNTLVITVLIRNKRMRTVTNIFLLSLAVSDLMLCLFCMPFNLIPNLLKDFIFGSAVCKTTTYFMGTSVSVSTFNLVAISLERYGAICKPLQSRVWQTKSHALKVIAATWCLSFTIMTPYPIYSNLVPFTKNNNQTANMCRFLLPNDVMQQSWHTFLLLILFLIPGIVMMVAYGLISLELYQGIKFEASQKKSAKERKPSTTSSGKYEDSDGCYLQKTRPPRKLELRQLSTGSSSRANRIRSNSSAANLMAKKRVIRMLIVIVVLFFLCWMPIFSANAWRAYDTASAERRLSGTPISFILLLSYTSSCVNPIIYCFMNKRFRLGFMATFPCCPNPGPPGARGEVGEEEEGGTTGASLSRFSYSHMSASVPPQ

Mus musculus [6] = test: Induction of hypothermia in CD-1 mouse assessed as reduction in body temperature at 20 mg/kg, ip administered for 5 days by thermometric method; format: functional, organism-based
[7] = Solubility of compound in acetonitrile incubated for 2 hrs by nephelometry; format: physicochemical
MT4 = test: Cytotoxicity against human MT4 cells assessed as effect on cell morphology at 100 uM incubated for 3 to 5 days by microscopic analysis; format: cell-based; settings: mt4, 100 µM
Mus musculus [8] = test: Antineuroinflammatory activity in mouse model of 5xFAD assessed as reduction in TNFalpha expression at 5 mg/kg, po administered for 4 weeks by qRT-PCR analysis; format: functional, organism-based
[9] = Displacement of [3H]2-BFI from I2IR in Swiss mouse brain cortex incubated for 45 mins by liquid scintillation spectrometry
Mus musculus [10] = test: Antineuroinflammatory activity in mouse model of 5xFAD assessed as effect on iNOS expression at 5 mg/kg, po administered for 4 weeks by qRT-PCR analysis; format: functional, organism-based
HeLa = test: Cytotoxicity against human HeLa cells assessed as reduction in cell viability at 100 uM incubated for 3 to 5 days by colorimetric analysis; format: cell-based

Voltage-gated inwardly rectifying potassium channel KCNH2, sequence (Q12809 whole entry): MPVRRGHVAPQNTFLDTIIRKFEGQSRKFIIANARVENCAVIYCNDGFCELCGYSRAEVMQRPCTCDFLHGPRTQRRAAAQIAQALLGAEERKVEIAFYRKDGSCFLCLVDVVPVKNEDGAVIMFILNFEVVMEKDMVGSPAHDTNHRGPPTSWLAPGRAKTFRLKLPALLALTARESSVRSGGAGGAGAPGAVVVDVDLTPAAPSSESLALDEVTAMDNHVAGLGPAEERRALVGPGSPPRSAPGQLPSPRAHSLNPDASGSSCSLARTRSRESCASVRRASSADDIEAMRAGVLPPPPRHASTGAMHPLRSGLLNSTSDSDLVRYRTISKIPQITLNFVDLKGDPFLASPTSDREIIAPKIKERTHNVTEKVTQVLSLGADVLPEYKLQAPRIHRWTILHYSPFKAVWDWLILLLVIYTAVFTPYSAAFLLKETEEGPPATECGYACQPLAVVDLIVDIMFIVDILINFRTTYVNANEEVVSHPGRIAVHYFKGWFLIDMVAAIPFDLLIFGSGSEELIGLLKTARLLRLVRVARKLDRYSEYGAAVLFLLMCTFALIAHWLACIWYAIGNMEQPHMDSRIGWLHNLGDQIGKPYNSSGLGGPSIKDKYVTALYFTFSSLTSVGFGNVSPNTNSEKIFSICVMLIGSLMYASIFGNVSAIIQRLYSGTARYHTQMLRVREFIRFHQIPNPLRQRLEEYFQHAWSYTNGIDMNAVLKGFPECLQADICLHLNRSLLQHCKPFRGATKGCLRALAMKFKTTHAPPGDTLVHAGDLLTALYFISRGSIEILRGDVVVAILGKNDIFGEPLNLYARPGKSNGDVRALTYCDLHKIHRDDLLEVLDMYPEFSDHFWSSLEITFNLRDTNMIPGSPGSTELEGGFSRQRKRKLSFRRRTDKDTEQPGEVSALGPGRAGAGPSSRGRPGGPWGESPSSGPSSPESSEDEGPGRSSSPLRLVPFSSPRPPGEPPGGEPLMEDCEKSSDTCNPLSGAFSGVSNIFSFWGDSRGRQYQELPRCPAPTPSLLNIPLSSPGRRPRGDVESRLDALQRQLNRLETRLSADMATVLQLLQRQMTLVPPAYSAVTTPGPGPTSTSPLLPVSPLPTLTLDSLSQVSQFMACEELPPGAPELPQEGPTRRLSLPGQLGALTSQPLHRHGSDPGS

Question: For `CCOP(=O)(OCC)C1(c2ccccc2)N=CC2C(=O)N(c3ccc(F)c(Cl)c3)C(=O)C21` (racemic), which “inhibition (INH)” value [1] is on record?
Answer: Not Active

Question: And the Stability [2]?
Answer: Stable

Question: And the Activity (Mus musculus [3])?
Answer: -30%

Question: And the Papp [4]?
Answer: 9.7 ×10⁻⁶ cm/s

Question: And the IC50 [5]?
Answer: 5.94 µM

Question: What about the T (Mus musculus [6]) of the same molecule?
Answer: inactive

Question: What about the solubility [7] of the same molecule?
Answer: Soluble

Question: And the Activity (MT4)?
Answer: Non-Toxic

Question: And the Activity (Mus musculus [8])?
Answer: Active

Question: And the pKi [9]?
Answer: 6.41

Question: What about the Activity (Mus musculus [10]) of the same molecule?
Answer: Active

Question: What about the Activity (HeLa) of the same molecule?
Answer: Non-Toxic

Reference: ChEMBL document CHEMBL4354864, “Bicyclic α-Iminophosphonates as High Affinity Imidazoline I2 Receptor Ligands for Alzheimer's Disease” (J Med Chem, 2020)
